The values that follow come from patent US20130156795A1, “METHODS FOR INHIBITION OF CELL PROLIFERATION, SYNERGISTIC TRANSCRIPTION MODULES AND USES THEREOF” (priority 2009, published 2013).

One data set relates to T98G glioma cell line. Briefly: ZNF238 and ZNF238-target mRNA expression by quantitative PCR in T98G cells. The class given is cell-based, human. The protocol:
FIG. 12A, Graphical representation of the promoter of ZNF238. The region between −1800 and −3400 contains stretches of CpG islands. FIG. 12B, 5-Azacytidine induces expression of ZNF238. T98G cells were treated with 5-Azacytidine at the indicated concentrations for 3 days. Expression of ZNF238 was analyzed by quantitative PCR. […] HPRT was used as control for normalization.
Computational and expression predictions converged towards the identification of a highly vulnerable structure of the regulatory region controlling ZNF238 expression. The ZNF238 promoter/enhancer is unusually rich in evolutionarily conserved CpG islands (FIG. 12A), which are targeted by DNA methyltransferases leading to gene expression silencing. Methylation of regulatory DNA regions is a common mechanism in human cancer and is implicated in the constitutive silencing of tumor suppressor genes in malignant glioma (109; herein incorporated by reference in its entirety). Thus, whether promoter methylation induces silencing of ZNF238 was considered. Pharmacological inhibition of methylation with an inhibitor of DNA methyltransferases (5-Azacytidine) elevated the expression of ZNF238 mRNA in the T98G glioma cell line (FIG. 12B) and repressed the expression of SerpineH1 and CH3IRL1 (FIG. 12C), two mesenchymal genes predicted as ZNF238 targets by ARACNe (FIG. 1).

The test system of data set [1] is C/EBPbeta-luciferase reporter. The data set is described as follows: C/EBPbeta-luciferase reporter screen in SNB19 glioma cells. In kind it is cell-based, human.
Description: SNB19 human glioma cells were stably transfected with the C/EBPbeta-driven luciferase plasmid (FIG. 36). Several clones were isolated and propagated. […] Cells were transfected with control siRNAs or siRNA oligonucleotides targeting C/EBPbeta (for example, SEQ ID NO: 228 or SEQ ID NO: 229). The control siRNA sequence is the Dharmacon ON-TARGETpIus Non-targeting Pool (Cat#: D-001810-10-20). Luciferase activity was measured on a luminometer and the results are shown after normalization with renilla.
A multimerized C/EBPbeta-luciferase reporter was stably introduced in SNB19 and a screening of ˜9,800 compounds was done to identify positive candidates.
The next data set concerns phospho-STAT3. Briefly: Inhibition of active STAT3 (phospho-STAT3). The class given is cell-based, human.
Data set [2] concerns SNB19 human glioma cell line. The data set is described as follows: Gene expression profiling and GSEA after shRNA silencing of MR-TFs in SNB19. The class given is cell-based. The conditions noted are these: shRNA knock-down in human glioma cells; for Enrichment of ATF2 regulon on TF-knock-down gene expression profile by GSEA, nES: Control TF regulon ATF2 (negative control), size 386; for Enrichment of SOX15 regulon on TF-knock-down gene expression profile by GSEA, nES: Control TF regulon SOX15 (negative control), size 213; for Enrichment of ZNF277 regulon on TF-knock-down gene expression profile by GSEA, nES: Control TF regulon ZNF277 (negative control), size 238; for Enrichment of ZNF500 regulon on TF-knock-down gene expression profile by GSEA, nES: Control TF regulon ZNF500 (negative control), size 469; for Enrichment of the MGES on genes downregulated after MR-TF knock-down, nES: MGES Enrich.; for Enrichment of C/EBPβ regulon on TF-knock-down gene expression profile by GSEA, nES: Module TF regulon C/EBPβ, size 209; for Enrichment of FosL2 regulon on TF-knock-down gene expression profile by GSEA, nES: Module TF regulon FosL2, size 403; for Enrichment of Runx1 regulon on TF-knock-down gene expression profile by GSEA, nES: Module TF regulon Runx1, size 490; for Enrichment of Stat3 regulon on TF-knock-down gene expression profile by GSEA, nES: Module TF regulon Stat3, size 366; for Enrichment of bHLH-B2 regulon on TF-knock-down gene expression profile by GSEA, nES: Module TF regulon bHLH-B2, size 226. From the text:
To test whether specific gene signatures were globally differentially regulated, we used the Gene Set Enrichment analysis method (A31; herein incorporated by reference in its entirety). In this method, the Kolmogorov-Smirnoff test is used to determine whether two gene lists are statistically correlated. In this case, one list includes genes on the microarray expression profile dataset, ranked by their differential expression statistics across two conditions (e.g. ectopically expressed Stat3C/C/EBPβ vs. control), from most over- to most underexpressed. The other list contains non-ranked genes in a specific signature (e.g. mesenchymal). This is very useful to detect, for instance, situations where signature genes can be differentially expressed as a whole, even though the fold-change can be small for each gene in isolation. In this case, a gene-by-gene test, such as a T-test, cannot reveal statistical significance. The algorithm was set to implement weighted scoring scheme and the enrichment score significance was assessed by 1000 permutation tests.
Next, lentivirus-mediated shRNA silencing of the five TFs (C/EBPβ, Stat3, bHLH-B2, FosL2, and Runx1) was performed in the SNB19 human glioma cell line, followed by gene expression profiling using HT-12v3 Illumina BeadArrays in triplicate.
RNA amplification for Array analysis was performed with Illumina TotalPrep RNA Amplification Kit (Ambion). 1.5 μg of amplified RNA was hybridized on Illumina HumanHT-12v3 or MouseWG-6 expression BeadChip according to the manufacturer's instructions. Hybridization data was obtained with an iScan BeadArray scanner (Illumina) and pre-processed by variance stabilization and robust spline normalization implemented in the lumi package under the R-system (Du, P., Kibbe, W. A. and Lin, S. M., (2008) ‘lumi: a pipeline for processing Illumina microarray’, Bioinformatics 24(13):1547-1548; herein incorporated by reference in its entirety).

In a further data set the test system is GBM-BTICs and SNB19. Briefly: qRT-PCR of C/EBPβ and Stat3 mRNA after lentivirus-mediated shRNA silencing. In kind it is cell-based, human. The protocol:
For loss-of-function experiments, lentivirus-mediated shRNA silencing of C/EBPβ and Stat3 in the human glioma cell line SNB19 and in early-passage cultures of tumor cells derived from primary GBM was performed. The latter were grown in serum-free conditions, in the presence of the growth factors bFGF and EGF. These culture conditions preserve the tumor stem cell-like features of GBM-derived cells and propel the formation of GBM-like tumors after intracranial transplantation in immunodeficient mice {Lee, 2006; herein incorporated by reference in its entirety} (GBM-derived brain tumor initiating cells, GBM-BTICs, see FIG. 22 for the analysis of their tumor-initiating capacity). At least three replicates for each condition were produced and a global dataset of 89 individual samples was generated, including 55 knockdown experiments in human glioma cells and 34 ectopic expression experiments in mouse NSCs. Gene expression profiles of human samples were produced with the HT-12v3 Illumina BeadArrays (including 24,385 human genes), while murine samples were profiled on mouse-6V2 Illumina BeadArrays (including 20,311 mouse genes). 14,857 murine genes were mapped to human orthologs, using the homologene database (http://www.ncbi.nlm.nih.gov/homologene; herein incorporated by reference in its entirety). Of the 149 genes in the MGES, 118 could be mapped to murine genes represented on the mouse-6V2 array.
Reciprocal changes followed ectopic expression of the two TFs in C17.2 and NSC cells (Table 10) qRT-PCR values and microarray-based measurements were highly correlated for Stat3 but not for C/EBPβ mRNA (FIG. 24). Moreover, the Stat3C and C/EBPβ constructs used in the ectopic expression experiments in mouse NSCs lack the 3′ UTR sequence targeted by the Illumina probes. Thus, the qRT-PCR values for C/EBPβ and Stat3 were used, rather than the microarray measurements, as more accurate read-outs for their mRNA expression across the 89 samples.
RNA was prepared with RiboPure kit (Ambion), and used for first strand cDNA synthesis using random primers and SuperScriptll Reverse Transcriptase (Invitrogen). QRT-PCR was performed using Power SYBR Green PCR Master Mix (Applied Biosystems). QRT-PCR results were analyzed by the ΔΔCT method (Livak & Schmittgen, Methods 25:402, 2001; herein incorporated by reference in its entirety) using GAPDH or 18S as housekeeping genes.
Lentiviral expression vectors carrying shRNAs were purchased from Sigma. To generate lentiviral particles, each shRNA expression plasmid was co-transfected with pCMV-dR8.91 and pCMV-MD2.G vectors into human embryonic kidney 293T cells using Fugene 6 (Roche). Lentiviral infections were performed as described {Zhao, 2008; herein incorporated by reference in its entirety}.
For orientation: In qPCR the cycle at which signal appears reflects the starting amount.

The test system of a further data set is SNB19 glioma cells. The data set is described as follows: Intracranial xenograft of shRNA-transduced SNB19 glioma cells in immunocompromised mice. The class given is in vivo, mouse. Conditions: SNB19 xenografted into striatum, 120 days from injection. The protocol: Next, it was considred whether loss of C/EBPβ and Stat3 in glioma cells reduced tumor aggressiveness in vitro and in vivo. […] Then, the impact of C/EBPβ and Stat3 knockdown for brain tumorigenesis in vivo was determined. SNB19 cells transduced with non-targeting control shRNA lentivirus or shRNA targeting C/EBPβ and/or Stat3 were xenografted into the striatum of immunocompromised mice. […] However, only one of four mice from the shC/EBPβ and one of five mice from the shC/EBPβ+shStat3 groups developed tumors after 120 days from the injection (FIG. 22B). […] Conversely, the single tumor in the shC/EBPβ+shStat3 group grew well circumscribed and was less angiogenic.
Intracranial injection of SNB19 glioma cell line and GBM-derived BTICs was performed in 6-8 weeks NOD/SCID mice (Charles River laboratories) in accordance with guidelines of the International Agency for Reserch on Cancer's Animal Care and Use Committee. Briefly, 48 h after lentiviral infection, 2×10^5 SNB19 or 3×10^5 BTICs were injected 2 mm lateral and 0.5 mm anterior to the bregma, 3 mm below the skull. Mice were monitored daily and sacrificed when neurological symptoms appeared. Kaplan-Meier survival curve of the mice injected with SNB19 glioma cells was generated using the DNA Statview software package (AbacusConcepts, Berkeley Calif.).

“Also recorded” adds a separate entry of the source. Like-named read-outs stand apart in the source and are kept apart here.

For `Nc1ncn([C@@H]2O[C@H](CO)[C@@H](O)[C@H]2O)c(=O)n1` [5-Azacytidine], in the data set on T98G glioma cell line, the “expression of CH3IRL1” value was “repressed” and the “expression of SerpineH1” value is on record as “repressed”. Further, the “expression of ZNF238 mRNA” value in the data set with T98G glioma cell line (3 days, quantitative PCR) is given as “induces; also recorded: elevated”. In addition, the “Expression of selected ZNF238 targets” value in the data set with T98G glioma cell line (HPRT normalization (FIG. 12C)) is given as “down-regulated”.

For `O=c1[nH]cc(F)c(=O)[nH]1` [5-fluorouracil], the “inhibition of C/EBPb activity, C/EBPb gene reporter assay” value in data set [1] (reporter activity at 48 hr, various dosages (FIG. 38A, 39A)) was “inhibition”.

For the compound `COc1cc([C@@H]2c3cc4c(cc3[C@@H](O[C@@H]3O[C@@H]5CO[C@@H](C)O[C@H]5[C@H](O)[C@H]3O)[C@H]3COC(=O)[C@H]23)OCO4)cc(OC)c1O` [etoposide], in data set [1] (pilot screen, microsource library (2000 compounds), SNB19), the “inhibition of CCAAT/enhancer-binding protein (CEBP) luciferase reporter” value is listed as “inhibit”. Further, in the data set with phospho-STAT3, the “inhibition of the active form of STAT3 (phospho-STAT3)” value is on record as “inhibit”.

Turning to “shC/EBPβ: lentiviral shRNA specific for C/EBPβ purchased from Sigma (TRCN0000007442, SEQ ID NO: 225) (CCGGCGACTTCCTCTCCGACCTCTTCTCGAGAAGAGGTCGGAGAGGAAGTCGTTTTT)”, in data set [2], the “Enrichment of ATF2 regulon on TF-knock-down gene expression profile by GSEA, nES” value is listed as 1.54; the “Enrichment of SOX15 regulon on TF-knock-down gene expression profile by GSEA, nES” value is 0.28; the “Enrichment of ZNF277 regulon on TF-knock-down gene expression profile by GSEA, nES” value was −0.79; the “Enrichment of ZNF500 regulon on TF-knock-down gene expression profile by GSEA, nES” value is recorded as −0.24. For the same compound, in data set [2], the “Enrichment of the MGES on genes downregulated after MR-TF knock-down, nES” value is on record as 3.23; the “Enrichment of C/EBPβ regulon on TF-knock-down gene expression profile by GSEA, nES” value is listed as 1.91; the “Enrichment of FosL2 regulon on TF-knock-down gene expression profile by GSEA, nES” value stood at 3.83; the “Enrichment of Runx1 regulon on TF-knock-down gene expression profile by GSEA, nES” value came out at 0.55. In data set [2], the “Enrichment of Stat3 regulon on TF-knock-down gene expression profile by GSEA, nES” value came to 2.49 and the “Enrichment of bHLH-B2 regulon on TF-knock-down gene expression profile by GSEA, nES” value was 1.74. Further, in the data set on GBM-BTICs and SNB19, the “C/EBPβ mRNA level relative to non-target shRNA transduced cells (fold ratio, median ± MAD)” value is 0.26 ± 0.119 and the “Stat3 mRNA level relative to non-target shRNA transduced cells (fold ratio, median ± MAD)” value is 1.13 ± 0.43. Moreover, the “C/EBPβ mRNA level relative to non-target shRNA transduced cells (fold ratio, median ± MAD)” value in the data set on GBM-BTICs and SNB19 (listed as C/EBPβ shRNA) was determined as 0.26. For the same compound, the “mice that developed tumors” value in the data set on SNB19 glioma cells is given as “one of four”.

Take “shStat3: lentiviral shRNA specific for Stat3 purchased from Sigma (TRCN0000020843, SEQ ID NO: 224) (CCGGGCAAAGAATCACATGCCACTTCTCGAGAAGTGGCATGTGATTCTTTGCTTTTT)”: in data set [2], the “Enrichment of ATF2 regulon on TF-knock-down gene expression profile by GSEA, nES” value is reported as −0.24; the “Enrichment of SOX15 regulon on TF-knock-down gene expression profile by GSEA, nES” value was −2.81; the “Enrichment of ZNF277 regulon on TF-knock-down gene expression profile by GSEA, nES” value is on record as −0.55; the “Enrichment of ZNF500 regulon on TF-knock-down gene expression profile by GSEA, nES” value is 0.20. For the same compound, in data set [2], the “Enrichment of the MGES on genes downregulated after MR-TF knock-down, nES” value was 3.59; the “Enrichment of C/EBPβ regulon on TF-knock-down gene expression profile by GSEA, nES” value is listed as 2.43; the “Enrichment of FosL2 regulon on TF-knock-down gene expression profile by GSEA, nES” value is listed as 4.98; the “Enrichment of Runx1 regulon on TF-knock-down gene expression profile by GSEA, nES” value is recorded as 2.41. For the same compound, in data set [2], the “Enrichment of Stat3 regulon on TF-knock-down gene expression profile by GSEA, nES” value was found to be 1.78 and the “Enrichment of bHLH-B2 regulon on TF-knock-down gene expression profile by GSEA, nES” value was found to be 0.59. In the data set on GBM-BTICs and SNB19, the “C/EBPβ mRNA level relative to non-target shRNA transduced cells (fold ratio, median ± MAD)” value came out at 0.87 ± 0.111 and the “Stat3 mRNA level relative to non-target shRNA transduced cells (fold ratio, median ± MAD)” value was found to be 0.205 ± 0.052. In the data set on GBM-BTICs and SNB19 (listed as Stat3-shRNA), the “Stat3 mRNA level relative to non-target shRNA transduced cells (fold ratio, median ± MAD)” value is 0.205. Further, the “mice that developed tumors” value in the data set on SNB19 glioma cells was “all mice”.
